# Experimental data taken from patent US9249151B2, “Bis-amido pyridines” (Boehringer Ingelheim International GmbH, priority 2013, dated 2016).
# Target: BIR3 domain of human cIAP1 (amino acids 256 to 363; cIAP1 BIR3) (Homo sapiens (Human), UniProt Q13490)
# Assay: cIAP1 BIR3 binding assay (DELFIA)
# Settings: not given
# Experimental: XIAP BIR3 and cIAP1 BIR3 Binding Assays (DELFIA)
# Peptide […]-Lys(Biotin), representing the N-terminus of mature human SMAC (SMAC peptide), was used as interaction partner in the protein-peptide interaction assay.
# BIR3 domains (10 nM) were incubated with SMAC peptide (10 nM) in assay buffer (50 mM Tris, 120 mM NaCl, 0.1% BSA, 1 mM DTT, 0.05% TritonX100) for one hour at room temperature in the presence of inhibitory compounds. The assay mixture was transferred to a streptavidin coated plate and incubated for one hour at room temperature to allow binding of the biotinylated peptide and associated BIR3 domains to the plate. After several washing steps Eu labeled anti-GST antibody (e.g. Perkin Elmer DELFIA Eu-N1-antiGST AD0250) was added to detect BIR3 domain-SMAC peptide interactions m according to Perkin Elmer's instructions. […] Time resolved Europium fluoresecence was measured in a Wallac Victor using Standard assay settings.
# DELFIA assay results were plotted against compound concentrations and Software GraphPad Prizm was used to calculate half maximal inhibitory concentrations (IC50 values).
# BIR3 domain of human cIAP1 (amino acids 256 to 363; cIAP1 BIR3), sequence (Q13490 256-363): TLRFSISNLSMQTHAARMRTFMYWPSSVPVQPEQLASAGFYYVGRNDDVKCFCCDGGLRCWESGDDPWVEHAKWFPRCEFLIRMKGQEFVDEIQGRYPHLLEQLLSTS
row,Compound,IC50
1,"CNC(C)C(=O)Nc1cc(-c2nc(C)nc3c(C)nn(C)c23)cc(NC(=O)c2ncc(Cl)cc2C)n1 (stereo not drawn) [Example 60, 5-chloro-3-methyl-N-{6-[2-(methylamino)propanamido]-4-{trimethyl-1H-pyrazolo-[4,3-d]pyrimidin-7-yl}-pyridin-2-yl}pyridine-2-carboxamide]",34 nM

# Same assay, conditions: BIR3 domain 10 nM, SMAC peptide 10 nM; values represent the (S)-isomers; * = racemic compound; read-out: cIAP1 BIR-3 IC50
row,Compound,IC50
1,"Cc1cccc2ccn(-c3cc(NC(=O)c4ccc(Cl)cn4)nc(NC(=O)C(C)N)c3)c12 (stereo not drawn) [Example 55, N-[6-(2-aminopropanamido)-4-(7-methyl-1H-indol-1-yl)pyridin-2-yl]-5-chloropyridine-2-carboxamide]",45 nM
2,"CNC(C)C(=O)Nc1cc(-c2c(Cl)c(C)nc3cc(Cl)cc(Cl)c23)cc(NC(=O)c2ccc(Cl)cn2)n1 (stereo not drawn) [Example 27, 5-chloro-N-{6-[2-(methylamino)propanamido]-4-(3,5,7-trichloro-2-methylquinolin-4-yl)pyridin-2-yl}pyridine-2-carboxamide]",18 nM
3,"CNC(C)C(=O)Nc1cc(-c2c(C)ccc3ncccc23)cc(NC(=O)c2ccc(OC)cn2)n1 (stereo not drawn) [Example 33, 5-methoxy-N-{6-[2-(methylamino)propanamido]-4-(6-methylquinolin-5-yl)pyridin-2-yl}pyridine-2-carboxamide]",59 nM
4,"CNC(C)C(=O)Nc1cc(-c2c(C)ccc3ncccc23)cc(NC(=O)c2cnc(C)cn2)n1 (stereo not drawn) [Example 34, 5-methyl-N-{6-[2-(methylamino)propanamido]-4-(6-methylquinolin-5-yl)pyridin-2-yl}pyrazine-2-carboxamide]",104 nM
5,"CNC(C)C(=O)Nc1cc(-c2nccc3cccc(C)c23)cc(NC(=O)c2ccc(Cl)cn2)n1 (stereo not drawn) [Example 8, 5-chloro-N-{6-[2-(methylamino)propanamido]-4-(8-methylisoquinolin-1-yl)pyridin-2-yl}pyridine-2-carboxamide]",1 nM
6,"CNC(C)C(=O)Nc1cc(-c2c(C)ccc3ncccc23)cc(NC(=O)c2ccncn2)n1 (stereo not drawn) [Example 37, N-{6-[2-(methylamino)propanamido]-4-(6-methylquinolin-5-yl)pyridin-2-yl)pyrimidine-4-carboxamide]",428 nM
7,"CNC(C)C(=O)Nc1cc(-c2ncnc3cccc(F)c23)cc(NC(=O)c2ccc(Cl)cn2)n1 (stereo not drawn) [Example 14, 5-chloro-N-[4-(5-fluoroquinazolin-4-yl)-6-[2-(methylamino)propanamido]-pyridin-2-yl]pyridine-2-carboxamide]",1 nM
8,"CNC(C)C(=O)Nc1cc(-c2c(C)ccc3ncccc23)cc(NC(=O)c2cc(Cl)ccn2)n1 (stereo not drawn) [Example 42, 4-chloro-N-{6-[2-(methylamino)propanamido]-4-(6-methylquinolin-5-yl)pyridin-2-yl}pyridine-2-carboxamide]",1190 nM
9,"CNC(C)C(=O)Nc1cc(-c2c(C)ccc3ncccc23)cc(NC(=O)c2ccc3ccccc3n2)n1 (stereo not drawn) [Example 36, N-{6-[2-(methylamino)propanamido]-4-(6-methylquinolin-5-yl)pyridin-2-yl}quinoline-2-carboxamide]",170 nM
10,"CNC(C)C(=O)Nc1cc(-c2c(Cl)cnc3ccccc23)cc(NC(=O)c2ccc(Cl)cn2)n1 (stereo not drawn) [Example 54, 5-chloro-N-[4-(3-chloroquinolin-4-yl)-6-[2-(methylamino)propanamido]pyridin-2-yl]pyridine-2-carboxamide]",11 nM
11,"CNC(C)C(=O)Nc1cc(-c2c(C)ccc3ncccc23)cc(NC(=O)c2ccc3cnccc3c2)n1 (stereo not drawn) [Example 44, N-{6-[2-(methylamino)propanamido]-4-(6-methylquinolin-5-yl)pyridin-2-yl}isoquinoline-6-carboxamide]",3190 nM
12,CNC(C)C(=O)Nc1cc(-c2cccc3cncc(C)c23)cc(NC(=O)c2ccc(Cl)cn2)n1 (stereo not drawn) [Example 53],1 nM
13,"CNC(C)C(=O)Nc1cc(-c2nc(C)nc3c(C)nn(C)c23)cc(NC(=O)c2ncc(Cl)cc2F)n1 (stereo not drawn) [Example 62, 5-chloro-3-fluoro-N-{6-[2-(methylamino)propanamido]-4-{trimethyl-1H-pyrazolo-[4,3-d]pyrimidin-7-yl}-pyridin-2-yl)pyridine-2-carboxamide]",1 nM
14,"CNC(C)C(=O)Nc1cc(-c2ncnc3oc(C)c(C)c23)cc(NC(=O)c2ccc(Cl)cn2)n1 (stereo not drawn) [Example 15, 5-chloro-N-(4-{5,6-dimethylfuro[2,3-d]pyrimidin-4-yl}-6-[2-(methylamino)propanamido]-pyridin-2-yl)pyridine-2-carboxamide]",1 nM
15,"CNC(C)C(=O)Nc1cc(-c2nc(C)nc3c(C)c(C)n(C)c23)cc(NC(=O)c2ccc(Cl)cn2)n1 (stereo not drawn) [Example 59, 5-chloro-N-{6-[2-(methylamino)propanamido]-4-{tetramethyl-5H-pyrrolo[3,2-d]pyrimidin-4-yl}pyridin-2-yl}pyridine-2-carboxamide]",1 nM
16,"CNC(C)C(=O)Nc1cc(-c2c(C)ncnc2C)cc(NC(=O)c2ccc(Cl)cn2)n1 (stereo not drawn) [Example 5, 5-chloro-N-[4-(4,6-dimethylpyrimidin-5-yl)-6-[2-(methylamino)propanamido]-pyridin-2-yl]pyridine-2-carboxamide]",5 nM
17,"CNC(C)C(=O)Nc1cc(-c2ncnc3c(C)nn(C)c23)cc(NC(=O)c2ncc(Cl)cc2C)n1 (stereo not drawn) [Example 61, 5-chloro-N-(4-{1,3-dimethyl-1H-pyrazolo[4,3-d]pyrimidin-7-yl}-6-[2-(methylamino)-propanamido]pyridin-2-yl)-3-methylpyridine-2-carboxamide]",1 nM
18,"CNC(C)C(=O)Nc1cc(-c2nc(C)nc3c(C)nn(C)c23)cc(NC(=O)c2ccc(Cl)cn2)n1 (stereo not drawn) [Example 21, 5-chloro-N-{6-[2-(methylamino)propanamido]-4-{trimethyl-1H-pyrazolo[4,3-d]pyrimidin-7-yl}pyridin-2-yl}pyridine-2-carboxamide]",1 nM
19,"CNC(C)C(=O)Nc1cc(-c2cccc3cnn(C)c23)cc(NC(=O)c2ccc(Cl)cn2)n1 (stereo not drawn) [Example 7, 5-chloro-N-[4-(1-methyl-1H-indazol-7-yl)-6-[2-(methylamino)propanamido]-pyridin-2-yl]pyridine-2-carboxamide]",3 nM
20,"CNC(C)C(=O)Nc1cc(-c2cccc3nc(C)c(C)n23)cc(NC(=O)c2ccc(OC)cn2)n1 (stereo not drawn) [Example 51, N-(4-{2,3-dimethylimidazo[1,2-a]pyridin-5-yl}-6-[2-(methylamino)propanamido]pyridin-2-yl)-5-methoxypyridine-2-carboxamide]",1 nM
21,"CNC(C)C(=O)Nc1cc(-c2cncc3ccn(C)c23)cc(NC(=O)c2ccc(Cl)cn2)n1 (stereo not drawn) [Example 52, 5-chloro-N-(4-{1-methyl-1H-pyrrolo[3,2-c]pyridin-7-yl}-6-[2-(methylamino)propanamido]pyridin-2-yl)pyridine-2-carboxamide]",1 nM
22,"CNC(C)C(=O)Nc1cc(-c2c(C)ccc3ncccc23)cc(NC(=O)c2cccnn2)n1 (stereo not drawn) [Example 43, N-{6-[2-(methylamino)propanamido]-4-(6-methylquinolin-5-yl)pyridin-2-yl}pyridazine-3-carboxamide]",2600 nM
23,"CNC(C)C(=O)Nc1cc(-c2cnc3cccc(Cl)n23)cc(NC(=O)c2ccc(Cl)cn2)n1 (stereo not drawn) [Example 18, 5-chloro-N-(4-{5-chloroimidazo[1,2-a]pyridin-3-yl}-6-[2-(methylamino)propanamido]-pyridin-2-yl)pyridine-2-carboxamide]",1 nM
